These results are taken from PubChem BioAssay (NCI).

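Five compound concentrations were applied to cells in 96-well plates for 48 hours; endpoints were derived by simple linear interpolation of the resulting dose-response curve. Here, GI50 denotes the concentration required for 50% inhibition of growth. TGI marks complete inhibition of growth.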

Among the test systems are MALME-3M melanoma; COLO 205 colon; MDA-MB-231 breast; U251 CNS; SW-620 colon; HOP-62 NSCLC; OVCAR-5 ovarian; SNB-19 CNS; TK-10 renal; IGROV1 ovarian.
What all share (assay): DTP human tumour cell line panel, 48 h

Usually TGI stands for the concentration giving total growth inhibition. A lower TGI goes with greater sensitivity of the cells. Broadly, the GI50 is the concentration that inhibits growth by half. As to `Oc1cn(-c2ccc(Cl)cc2)nc1-c1n[nH]c(=S)n1C1CCCCC1`, the TGI in the assay with MALME-3M melanoma was > 100 µM; in the assay on COLO 205 colon, > 100 µM; in the assay with MDA-MB-231 breast, > 90.7 µM; with U251 CNS, > 100 µM; in the assay with SW-620 colon it was > 100 µM; in the assay on HOP-62 NSCLC, > 100 µM. Also, the concentration for total growth inhibition (TGI) with OVCAR-5 ovarian was > 100 µM; with SNB-19 CNS it was > 44.8 µM; in the assay with TK-10 renal, 34.1 µM; with IGROV1 ovarian it was > 100 µM. Besides, the GI50 with COLO 205 colon was 64.8 µM; in the assay with MDA-MB-231 breast, 2.22 µM; with U251 CNS, 0.467 µM; with SW-620 colon it was 0.475 µM; in the assay on HOP-62 NSCLC, 1.67 µM; with OVCAR-5 ovarian, 3.05 µM. The GI50 was 0.416 µM with SNB-19 CNS, 0.807 µM with TK-10 renal and 24.2 µM in the assay with IGROV1 ovarian.

Regarding `COCCOc1cnc2ccn([C@H](C)c3nnc4c(F)cc(-c5cnn(C)c5)cn34)c(=O)c2c1`, the GI50 with MALME-3M melanoma, in the assay with COLO 205 colon, in the assay with MDA-MB-231 breast, in the assay on U251 CNS, with SW-620 colon and in the assay with HOP-62 NSCLC was > 100 µM each time. In addition, the GI50 in the assay on OVCAR-5 ovarian, in the assay on SNB-19 CNS, in the assay on TK-10 renal and in the assay on IGROV1 ovarian was > 100 µM in each case. In addition, the TGI in the assay on MALME-3M melanoma, in the assay with COLO 205 colon, in the assay on MDA-MB-231 breast, with U251 CNS, with SW-620 colon and in the assay with HOP-62 NSCLC was > 100 µM each time. Further, the total growth inhibition concentration (TGI) with OVCAR-5 ovarian, in the assay with SNB-19 CNS, with TK-10 renal and in the assay with IGROV1 ovarian was > 100 µM each time.

Take `COc1cc2ncn(-c3cc(OCCc4ccccc4)c(C(N)=O)s3)c2cc1OC`: the GI50 in the assay with MALME-3M melanoma was > 25 µM; in the assay with COLO 205 colon, 24.4 µM; in the assay with MDA-MB-231 breast, 24.6 µM; in the assay on U251 CNS, > 25 µM; in the assay with SW-620 colon, > 25 µM; with HOP-62 NSCLC, > 25 µM. The GI50 in the assay on OVCAR-5 ovarian is > 25 µM; in the assay with SNB-19 CNS, > 25 µM; in the assay on TK-10 renal, > 17.2 µM; in the assay with IGROV1 ovarian, > 25 µM. Besides, the TGI in the assay on MALME-3M melanoma, with COLO 205 colon, in the assay with MDA-MB-231 breast, with U251 CNS, in the assay on SW-620 colon and with HOP-62 NSCLC was > 25 µM each time. Further, the concentration for total growth inhibition (TGI) with OVCAR-5 ovarian, in the assay with SNB-19 CNS, in the assay on TK-10 renal and in the assay with IGROV1 ovarian was > 25 µM in each case.

As to `CCOC(=O)CNC(=O)c1ccccc1Nc1ccnc(C(F)(F)F)c1`, the GI50 was 34.1 µM in the assay with MALME-3M melanoma; 17.8 µM in the assay on COLO 205 colon; 33.4 µM in the assay with MDA-MB-231 breast; 34.3 µM in the assay with U251 CNS; 29.9 µM in the assay with SW-620 colon; 39.6 µM in the assay on HOP-62 NSCLC. Moreover, the GI50 was > 51.1 µM with OVCAR-5 ovarian, 34.2 µM in the assay with SNB-19 CNS, 41.6 µM in the assay on TK-10 renal and 32.2 µM with IGROV1 ovarian. Also, the TGI with MALME-3M melanoma is > 88.8 µM; with COLO 205 colon it was > 67.2 µM; with MDA-MB-231 breast, > 73.1 µM; with U251 CNS, > 62.1 µM; in the assay with SW-620 colon, > 74.4 µM; in the assay with HOP-62 NSCLC, > 69.6 µM. For the same molecule, the total growth inhibition concentration (TGI) is > 100 µM with OVCAR-5 ovarian, > 100 µM in the assay with SNB-19 CNS, > 100 µM in the assay with TK-10 renal and > 65.7 µM with IGROV1 ovarian.

For `COc1ccc2c(c1)C(C)Cc1c(ncnc1-n1c(C)nc3ccccc31)N2C` (centres undefined), the GI50 in the assay on MALME-3M melanoma was 11.3 µM; with COLO 205 colon, 2.76 µM; in the assay on MDA-MB-231 breast, 4.56 µM; in the assay on U251 CNS, 4.51 µM; in the assay on SW-620 colon, 6.24 µM; with HOP-62 NSCLC, 4.23 µM. Besides, the GI50 in the assay on OVCAR-5 ovarian was 13 µM; in the assay on SNB-19 CNS, 4.45 µM; with TK-10 renal it was 7.28 µM; with IGROV1 ovarian, 6.3 µM. Besides, the TGI turned out to be 25.2 µM with MALME-3M melanoma; 11.1 µM in the assay with COLO 205 colon; 28.2 µM in the assay on MDA-MB-231 breast; 17.7 µM in the assay on U251 CNS; 28 µM in the assay on SW-620 colon; 24.6 µM in the assay on HOP-62 NSCLC. The TGI in the assay with OVCAR-5 ovarian is 39.8 µM; with SNB-19 CNS, 23.1 µM; in the assay with TK-10 renal, 45.9 µM; in the assay with IGROV1 ovarian, 36.2 µM.

Take `NC(CS/C(Cl)=C/Cl)C(=O)O` (centres undefined): the GI50 in the assay with MALME-3M melanoma is 62.4 µM; in the assay on COLO 205 colon, 26.6 µM; with MDA-MB-231 breast, > 100 µM; with U251 CNS, > 61 µM; in the assay with SW-620 colon, 39.8 µM; in the assay on HOP-62 NSCLC, 4.64 µM. For the same molecule, the GI50 in the assay on OVCAR-5 ovarian is > 100 µM; with SNB-19 CNS, 30.7 µM; with TK-10 renal it was > 100 µM; with IGROV1 ovarian, > 100 µM. In addition, the TGI in the assay with MALME-3M melanoma was > 100 µM; with COLO 205 colon it was > 69.7 µM; in the assay with MDA-MB-231 breast it was > 100 µM; with U251 CNS, > 100 µM; in the assay on SW-620 colon, > 100 µM; with HOP-62 NSCLC it was 29.3 µM. The TGI in the assay with OVCAR-5 ovarian, in the assay on SNB-19 CNS, in the assay on TK-10 renal and in the assay on IGROV1 ovarian was > 100 µM in each case.

On to `NC(N)=NCCCCCNc1noc(Cc2c[nH]c3cc(Br)ccc23)n1`, for which the GI50 in the assay on MALME-3M melanoma was 8.34 µM; in the assay on COLO 205 colon it was 9.77 µM; in the assay with MDA-MB-231 breast it was 8.05 µM; with U251 CNS, 2.78 µM; with SW-620 colon, 20 µM; with HOP-62 NSCLC it was 5.84 µM. The GI50 is 24.9 µM with OVCAR-5 ovarian, 3.62 µM in the assay with SNB-19 CNS, 49.4 µM in the assay on TK-10 renal and 4.55 µM in the assay with IGROV1 ovarian. The TGI with MALME-3M melanoma was 35 µM; in the assay on COLO 205 colon it was 28.2 µM; in the assay on MDA-MB-231 breast, 30.2 µM; in the assay on U251 CNS it was 14.9 µM; in the assay with SW-620 colon, > 100 µM; in the assay on HOP-62 NSCLC it was 28.4 µM. The TGI in the assay on OVCAR-5 ovarian is > 100 µM; in the assay with SNB-19 CNS it was 20.4 µM; with TK-10 renal, > 100 µM; in the assay on IGROV1 ovarian it was 19.4 µM.
